Assay results: the NIST ThermoML archive (doi:10.1021/je060271a)

Conditions: 303.16 K, Liquid, Vibrating tube method

CCCC(=O)OCC(COC(=O)CCC)(COC(=O)CCC)COC(=O)CCC [pentaerythritol tetrabutyrate]
Conditions | mass density [kg/m3]
15938 kPa | 1052.3
15972 kPa | 1052.3
16014 kPa | 1052.4
16048 kPa | 1052.3
16090 kPa | 1052.4
16125 kPa | 1052.5
16167 kPa | 1052.5
16209 kPa | 1052.5
16244 kPa | 1052.5
16286 kPa | 1052.6
16323 kPa | 1052.5
16366 kPa | 1052.5
16409 kPa | 1052.7
16446 kPa | 1052.6
16489 kPa | 1052.7
16526 kPa | 1052.7
16571 kPa | 1052.7
16616 kPa | 1052.7
16654 kPa | 1052.7
16700 kPa | 1052.7
16739 kPa | 1052.8
16786 kPa | 1052.8
16833 kPa | 1052.9
16872 kPa | 1053
16906 kPa | 1052.9
16947 kPa | 1053
16988 kPa | 1052.9
17023 kPa | 1053
17065 kPa | 1053
17100 kPa | 1053
17142 kPa | 1053
17185 kPa | 1052.9
17221 kPa | 1053
17265 kPa | 1053.2
17301 kPa | 1053.1
17346 kPa | 1053.2
17383 kPa | 1053.1
17428 kPa | 1053.2
17464 kPa | 1053.2
17508 kPa | 1053.2
17552 kPa | 1053.1
17588 kPa | 1053.3
17632 kPa | 1053.3
17669 kPa | 1053.4
17713 kPa | 1053.5
17758 kPa | 1053.5
17796 kPa | 1053.4
17840 kPa | 1053.4
17887 kPa | 1053.5
17924 kPa | 1053.4
17970 kPa | 1053.5
18009 kPa | 1053.6
18056 kPa | 1053.6
18094 kPa | 1053.5
18141 kPa | 1053.6
18187 kPa | 1053.6
18226 kPa | 1053.6
18275 kPa | 1053.6
18315 kPa | 1053.9
18363 kPa | 1053.8
18405 kPa | 1053.7
18448 kPa | 1053.9
18497 kPa | 1053.9
18546 kPa | 1054
18588 kPa | 1053.9
18638 kPa | 1054
18681 kPa | 1054.1
18732 kPa | 1054
18784 kPa | 1054
18828 kPa | 1054.1
18881 kPa | 1054.2
18917 kPa | 1054
18955 kPa | 1054
18996 kPa | 1054.2
19030 kPa | 1054.2
19063 kPa | 1054.2
19103 kPa | 1054.2
19136 kPa | 1054.2
19176 kPa | 1054.3
19209 kPa | 1054.3
19248 kPa | 1054.3
19288 kPa | 1054.4
19321 kPa | 1054.3
19361 kPa | 1054.4
19395 kPa | 1054.3
19436 kPa | 1054.4
19477 kPa | 1054.5
19512 kPa | 1054.4
19553 kPa | 1054.5
19587 kPa | 1054.5
19629 kPa | 1054.5
19665 kPa | 1054.4
19707 kPa | 1054.6
19741 kPa | 1054.6
19783 kPa | 1054.5
19825 kPa | 1054.7
19861 kPa | 1054.7
19904 kPa | 1054.6
19940 kPa | 1054.8
19985 kPa | 1054.6
20021 kPa | 1054.8
20064 kPa | 1054.8
20101 kPa | 1054.9
20144 kPa | 1054.8
20189 kPa | 1054.9
20226 kPa | 1054.9
20270 kPa | 1054.9
20308 kPa | 1054.8
20479 kPa | 1055
20525 kPa | 1054.9
20562 kPa | 1055.1
20609 kPa | 1055.1
20648 kPa | 1055.1
20695 kPa | 1055.1
20735 kPa | 1055.3
20783 kPa | 1055.2
20823 kPa | 1055.3
20871 kPa | 1055.3
20911 kPa | 1055.3
20958 kPa | 1055.2
20997 kPa | 1055.3
21046 kPa | 1055.4
21087 kPa | 1055.4
21317 kPa | 1055.5
21366 kPa | 1055.5
21458 kPa | 1055.5
21510 kPa | 1055.6
21552 kPa | 1055.6
21603 kPa | 1055.7
21646 kPa | 1055.7
21698 kPa | 1055.6
21749 kPa | 1055.8
21792 kPa | 1055.7
21845 kPa | 1055.9
21889 kPa | 1055.9
21942 kPa | 1055.8
21986 kPa | 1055.9
22040 kPa | 1055.9
22093 kPa | 1056
22138 kPa | 1056
22194 kPa | 1056
22240 kPa | 1056.1
22297 kPa | 1056.1
22344 kPa | 1056.2
22399 kPa | 1056.2
22444 kPa | 1056.1
22501 kPa | 1056.1
22549 kPa | 1056.2
22606 kPa | 1056.2
22664 kPa | 1056.3
22714 kPa | 1056.3
22776 kPa | 1056.4
22829 kPa | 1056.3
22885 kPa | 1056.5
22917 kPa | 1056.4
22959 kPa | 1056.5
22993 kPa | 1056.4
23026 kPa | 1056.4
23065 kPa | 1056.6
23104 kPa | 1056.5
23137 kPa | 1056.6
23177 kPa | 1056.6
23211 kPa | 1056.7
23251 kPa | 1056.7
23285 kPa | 1056.7
23325 kPa | 1056.7
23359 kPa | 1056.7
23399 kPa | 1056.7
23440 kPa | 1056.7
23475 kPa | 1056.8
23516 kPa | 1056.9
23551 kPa | 1056.9
23593 kPa | 1056.9
23628 kPa | 1056.8
23670 kPa | 1056.9
23705 kPa | 1056.8
23747 kPa | 1056.8
23782 kPa | 1057
23825 kPa | 1057
23860 kPa | 1057
23902 kPa | 1057.1
23946 kPa | 1057.1
23981 kPa | 1057
24023 kPa | 1057.1
24066 kPa | 1057
24101 kPa | 1057.2
24145 kPa | 1057.1
24182 kPa | 1057.3
24225 kPa | 1057.1
24269 kPa | 1057.2
24306 kPa | 1057.2
24350 kPa | 1057.3
24387 kPa | 1057.4
24432 kPa | 1057.3
24470 kPa | 1057.3
24515 kPa | 1057.5
24560 kPa | 1057.4
24597 kPa | 1057.4
24642 kPa | 1057.4
24680 kPa | 1057.5
24726 kPa | 1057.6
24772 kPa | 1057.6
24810 kPa | 1057.5
24858 kPa | 1057.5
24897 kPa | 1057.6
24944 kPa | 1057.7
24991 kPa | 1057.6
25031 kPa | 1057.5
25070 kPa | 1057.7
25117 kPa | 1057.7
25165 kPa | 1057.7
25204 kPa | 1057.8
25252 kPa | 1057.8
25292 kPa | 1057.9
25340 kPa | 1057.9
25389 kPa | 1058
25431 kPa | 1057.9
25481 kPa | 1057.9
25523 kPa | 1058
25574 kPa | 1058.1
25618 kPa | 1058.1
25669 kPa | 1058
25712 kPa | 1058.1
25765 kPa | 1058.1
25816 kPa | 1058.1
25851 kPa | 1058.2
25889 kPa | 1058.2
25926 kPa | 1058.1
25957 kPa | 1058
25995 kPa | 1058.2
26027 kPa | 1058.1
26066 kPa | 1058.3
26106 kPa | 1058.3
26139 kPa | 1058.4
26171 kPa | 1058.3
26210 kPa | 1058.3
26243 kPa | 1058.4
26282 kPa | 1058.4
26320 kPa | 1058.4
26352 kPa | 1058.5
26392 kPa | 1058.5
26430 kPa | 1058.3
26463 kPa | 1058.4
26504 kPa | 1058.6
26538 kPa | 1058.6
26574 kPa | 1058.6
26615 kPa | 1058.5
26648 kPa | 1058.6
26688 kPa | 1058.6
26728 kPa | 1058.6
26761 kPa | 1058.6
26802 kPa | 1058.6
26836 kPa | 1058.7
26876 kPa | 1058.8
26918 kPa | 1058.7
26952 kPa | 1058.7
26994 kPa | 1058.8
27028 kPa | 1058.8
27070 kPa | 1058.9
27110 kPa | 1058.8
27145 kPa | 1058.8
27188 kPa | 1058.8
27223 kPa | 1059.1
27266 kPa | 1058.9
27301 kPa | 1059
27343 kPa | 1058.9
27385 kPa | 1059.2
27420 kPa | 1059
27464 kPa | 1059
27499 kPa | 1059
27542 kPa | 1059.1
27585 kPa | 1059.1
27622 kPa | 1059.2
27666 kPa | 1059.2
27702 kPa | 1059.2
27747 kPa | 1059.1
27784 kPa | 1059.3
27828 kPa | 1059.2
27865 kPa | 1059.3
27909 kPa | 1059.4
27953 kPa | 1059.4
27991 kPa | 1059.3
28035 kPa | 1059.4
28079 kPa | 1059.4
28117 kPa | 1059.3
28162 kPa | 1059.4
28200 kPa | 1059.5
28244 kPa | 1059.4
28290 kPa | 1059.5
28328 kPa | 1059.5
28374 kPa | 1059.6
28419 kPa | 1059.7
